These results are taken from patent US20220153751A1, “BIFUNCTIONAL COMPOUNDS” (BioTheryX, Inc., priority 2018, published 2022).

What all share (format): cell-based
Experiment [1] concerns the target T1, IKAROS (Homo sapiens, UniProt Q13422+Q96SW2).
T1 construct: endogenous in cells; host or cells: MV-4-11
Nature of the experiment: IKAROS degradation assay (Western blot, MV-4-11 cells). The note with it: MV4-11, 6-8 h. As to the method: (§1) MV-4-11 cells were grown in RPMI 1640 media supplemented with 10% fetal bovine serum, streptomycin and penicillin.
(§2) Cells were cultured at approximately 10^6 cells per mL and incubated in DMSO or the indicated compound for 6-8 h. Whole cell extracts were prepared using RIPA buffer according to manufacturer's protocol (Pierce). Briefly, 3×10^6 cells were washed once in PBS, the cell pellets were resuspended in RIPA buffer and allowed to incubate for 15 minutes on ice. Cells debris was removed by centrifugation and the cleared whole cell lysates were transferred to new tubes for further analysis.
(§3) For Western blot analysis, whole cell protein extracts were separated on 4-12% SDS-polyacrylamide gels, transferred to nitrocellulose and probed with the indicated primary antibodies. Membranes were subsequently washed and probed with the appropriate IRDye secondary antibodies (LI-COR). The signal was detected using the Odyssey Imaging System (LI-COR).
(§4) The following antibodies were used in these studies: Anti-eRF3/GSPT1: Abcam, ab126090 (Cambridge, Mass.); Anti-Ikaros: Abcam, ab191394 (Cambridge, Mass.); Anti-CK1α: Abcam, ab108296 (Cambridge, Mass.); Anti-CDK9: Santa Cruz Biotechnology, sc13130 (Dallas, Tex.); Anti-CDK16: Millipore Sigma, HPA001366 (St. Louis, Mo.); 3-actin (8H10comD10) mouse monoclonal antibody: Cell Signaling Technology, #3700 (Danvers, Mass.); IRDye 680RD Goat anti-rabbit antibody: LI-COR, 926-68071 (Lincoln, Nebr.); IRDye 800CW Goat anti-mouse antibody: LI-COR, 926-32210 (Lincoln, Nebr.).
(§5) CDK9 activities are shown in Table 4 at two different concentrations. CDK16 activities are shown in Table 5 at two different concentrations. In each of Tables 1-5, the % degradation values are reported as “A”, “B”, “C”, or “D”. “A” represents a % degradation value of less than 25% (value <25%). “B” represents a % degradation value of equal to or more than 25% and less than 50% (25%≤value<50%). “C” represents a % degradation value of equal to or more than 50% and less than 75% (50%≤value<75%). “D” represents a % degradation value of equal to or more than 75% (value ≥75%).
On the technique in general: A western blot detects proteins with antibodies after separation by electrophoresis.

The test system of experiment [2] is MOLM-13 cells. Nature of the experiment: MOLM-13 cell viability assay (CellTiter-Glo). The following applies: Homo sapiens, MOLM-13, 72 h, 3 days, read-out: MOLM-13 Cell Viability % DMSO at 1 μM. The procedure, abridged:
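MOLM-13 cells at 2500 cells/well were exposed to compound for 3 days at 37 °C. Viability was read by CellTiter-Glo luminescence and expressed as % of DMSO control, binned A (<50%), B (50–<70%), C (70–<90%) or D (≥90%).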
On the technique in general: In ATP-based viability assays light output follows the ATP content of the culture.

Experiment [3] deals with T2, CK1α (Homo sapiens, UniProt P48729+Q96SW2).
T2 construct: Whole cell extracts were prepared using RIPA buffer; endogenous in cells; host or cells: MV-4-11
Nature of the experiment: CK1α degradation assay (Western blot, MV-4-11 cells). The following applies: MV4-11, 6-8 h. As for the experimental part: as §1, §2, §3, §4, §5

The test system of experiment [4] is IL-1β. Nature of the experiment: IL-1β inhibition assay, LPS-induced PBMCs / CD14+ monocytes (Meso Scale). The note with it: 1 h pretreatment, 100 ng/mL LPS 18-24 h. As to the method:
(§6) Either frozen primary blood mononuclear cells (PBMCs) or frozen CD14+ mobilized peripheral blood monocytes were purchased from AllCells (PB003F, Normal Peripheral Blood MNC (Alameda, Calif.)). Cells were quick thawed, washed 1-time with RPMI-1640 (10% FBS/1% Pen-Strep) and plated in 96 well plates at 200,000 cells per well. Cells were pretreated with DMSO only or with the indicated compound for 1 h and then induced with 100 ng/mL lipopolysaccharide (LPS) for 18-24 h. The supernatant was analyzed for IL-1β, IL-6, and TNFα, using Meso Scale assay according to manufacturer's protocol. The negative control wells were treated with DMSO.
(§7) In Table 6, the % inhibition values are reported as “A”, “B”, “C”, or “D”. “A” represents a % inhibition value of less than 50% (value <50%). “B” represents a % inhibition value of equal to or more than 50% and less than 70% (50%≤value<70%). “C” represents a % inhibition value of equal to or more than 70% and less than 90% (70%≤value<90%). “D” represents a % inhibition value of equal or more than 90% (value ≥90%). In Table 7, the fold-change values are reported as “A”, “B”, “C”, or “D”. “A” represents a fold-change value of equal to or less than 0.1 (value ≤0.1). “B” represents a fold-change value of more than 0.1 and equal to or less than 0.5 (0.1<value≤0.5). “C” represents a fold-change value of more than 0.5 and equal to or less than 1 (0.5<value≤1). “D” represents a fold-change value of more than 1 (value >1).

For experiment [5], the system named is IL-6. Nature of the experiment: IL-6 inhibition assay, LPS-induced PBMCs / CD14+ monocytes (Meso Scale). The following applies: 1 h pretreatment, 100 ng/mL LPS 18-24 h. As to the method: as §6, §7
For experiment [6], the system named is TNF-α. Nature of the experiment: TNF-α inhibition assay, LPS-induced PBMCs / CD14+ monocytes (Meso Scale). The note with it: 1 h pretreatment, 100 ng/mL LPS 18-24 h. As to the method: as §6, §7
For experiment [7], the target named is T3, GSPT1 (Homo sapiens, UniProt P15170+Q96SW2).
T3 construct: Whole cell extracts were prepared using RIPA buffer; endogenous in cells; host or cells: MV-4-11
Nature of the experiment: GSPT1 degradation assay (Western blot, MV-4-11 cells). The note with it: MV4-11, 6-8 h. As to the method: as §1, §2, §3, §4, §5

Experiment [8] concerns the target T4, CDK9 (Homo sapiens, UniProt P50750).
T4 construct: Whole cell extracts were prepared using RIPA buffer; endogenous in cells; host or cells: MV-4-11
Nature of the experiment: CDK9 degradation assay (Western blot, MV-4-11 cells). The following applies: 6-8 h; for Dmax at 0.1 µM: MV4-11, 0.1 μM; for Dmax at 1 µM: MV4-11, 1 μM. The procedure, abridged:
(§8)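 6-8 h cpd vs DMSO, ~10^6 cells/mL; RIPA lysis on ice 15 min; 4-12% SDS-PAGE, nitrocellulose, IRDye secondaries, Odyssey scan. % degradation categories: A <25, B 25-<50, C 50-<75, D ≥75%.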

Experiment [9] concerns the target T5, CDK16 (Homo sapiens, UniProt Q00536).
T5 construct: Whole cell extracts were prepared using RIPA buffer; endogenous in cells; host or cells: MV-4-11
Nature of the experiment: CDK16 degradation assay (Western blot, MV-4-11 cells). The following applies: 6-8 h; for Dmax at 0.1 µM: MV4-11, 0.1 μM; for Dmax at 1 µM: MV4-11, 1 μM. The procedure, abridged:
as §8

T2 sequence (P48729 whole entry): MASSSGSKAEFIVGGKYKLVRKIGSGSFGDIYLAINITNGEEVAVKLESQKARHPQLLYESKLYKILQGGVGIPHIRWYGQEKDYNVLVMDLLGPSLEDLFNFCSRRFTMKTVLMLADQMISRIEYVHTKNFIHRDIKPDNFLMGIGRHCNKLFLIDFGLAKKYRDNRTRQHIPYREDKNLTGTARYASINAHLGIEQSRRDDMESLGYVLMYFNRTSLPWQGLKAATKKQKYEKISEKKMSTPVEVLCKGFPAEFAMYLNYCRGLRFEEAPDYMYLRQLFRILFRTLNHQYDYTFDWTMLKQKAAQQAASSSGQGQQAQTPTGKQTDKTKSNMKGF
T2 sequence (Q96SW2 whole entry): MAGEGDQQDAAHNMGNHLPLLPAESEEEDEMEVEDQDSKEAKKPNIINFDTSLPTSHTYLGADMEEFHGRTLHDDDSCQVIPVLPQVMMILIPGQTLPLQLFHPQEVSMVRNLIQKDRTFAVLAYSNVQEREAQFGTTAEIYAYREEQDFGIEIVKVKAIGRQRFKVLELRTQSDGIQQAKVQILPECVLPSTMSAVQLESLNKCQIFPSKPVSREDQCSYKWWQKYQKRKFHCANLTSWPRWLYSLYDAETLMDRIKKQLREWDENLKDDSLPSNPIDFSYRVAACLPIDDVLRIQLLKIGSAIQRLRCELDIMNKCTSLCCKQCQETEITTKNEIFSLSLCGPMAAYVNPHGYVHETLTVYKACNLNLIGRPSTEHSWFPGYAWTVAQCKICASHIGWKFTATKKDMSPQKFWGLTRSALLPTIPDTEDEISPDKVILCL
T2 sequence (Q16531 whole entry partner): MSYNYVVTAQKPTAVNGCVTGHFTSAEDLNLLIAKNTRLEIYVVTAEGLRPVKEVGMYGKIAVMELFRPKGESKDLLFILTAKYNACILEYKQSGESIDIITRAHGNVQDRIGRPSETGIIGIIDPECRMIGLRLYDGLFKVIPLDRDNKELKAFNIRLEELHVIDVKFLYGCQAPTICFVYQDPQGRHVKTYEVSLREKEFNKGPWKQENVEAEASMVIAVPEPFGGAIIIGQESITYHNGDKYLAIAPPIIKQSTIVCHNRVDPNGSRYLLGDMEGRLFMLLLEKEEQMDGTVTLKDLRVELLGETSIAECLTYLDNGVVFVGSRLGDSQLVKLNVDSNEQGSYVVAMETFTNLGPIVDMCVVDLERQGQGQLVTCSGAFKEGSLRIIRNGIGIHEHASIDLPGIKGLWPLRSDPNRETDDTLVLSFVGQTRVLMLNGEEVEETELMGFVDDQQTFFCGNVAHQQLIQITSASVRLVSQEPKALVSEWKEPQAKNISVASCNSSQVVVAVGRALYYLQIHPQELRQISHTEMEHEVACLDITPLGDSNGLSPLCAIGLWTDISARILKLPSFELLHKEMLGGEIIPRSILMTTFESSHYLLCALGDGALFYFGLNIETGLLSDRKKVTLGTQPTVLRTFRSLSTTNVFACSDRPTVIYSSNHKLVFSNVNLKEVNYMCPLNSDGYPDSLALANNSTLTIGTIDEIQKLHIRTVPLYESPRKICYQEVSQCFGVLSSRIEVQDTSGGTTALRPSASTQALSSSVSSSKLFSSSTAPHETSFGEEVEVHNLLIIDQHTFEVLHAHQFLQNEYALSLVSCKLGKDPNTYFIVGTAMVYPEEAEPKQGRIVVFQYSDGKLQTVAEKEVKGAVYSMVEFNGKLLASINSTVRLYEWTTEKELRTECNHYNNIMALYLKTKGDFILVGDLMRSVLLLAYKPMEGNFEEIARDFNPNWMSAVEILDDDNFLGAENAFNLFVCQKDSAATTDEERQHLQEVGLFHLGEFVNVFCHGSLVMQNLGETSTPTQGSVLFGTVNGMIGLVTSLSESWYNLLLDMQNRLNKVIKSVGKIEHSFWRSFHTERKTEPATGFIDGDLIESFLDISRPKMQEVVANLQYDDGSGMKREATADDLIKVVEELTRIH
T1 sequence (Q13422 whole entry): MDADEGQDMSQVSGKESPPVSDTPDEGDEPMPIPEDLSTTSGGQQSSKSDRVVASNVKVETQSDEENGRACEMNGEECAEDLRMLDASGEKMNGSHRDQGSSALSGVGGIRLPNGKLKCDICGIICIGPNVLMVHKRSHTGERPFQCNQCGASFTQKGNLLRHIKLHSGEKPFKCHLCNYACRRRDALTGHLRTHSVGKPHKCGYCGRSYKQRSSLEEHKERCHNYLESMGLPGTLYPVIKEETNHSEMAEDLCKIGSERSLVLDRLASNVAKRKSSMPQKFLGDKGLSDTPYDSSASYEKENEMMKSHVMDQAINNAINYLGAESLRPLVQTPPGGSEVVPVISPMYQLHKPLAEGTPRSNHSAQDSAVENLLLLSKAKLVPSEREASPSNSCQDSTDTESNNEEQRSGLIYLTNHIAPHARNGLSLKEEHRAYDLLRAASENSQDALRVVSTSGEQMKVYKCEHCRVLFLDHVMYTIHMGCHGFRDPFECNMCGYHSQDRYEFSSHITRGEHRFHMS
T1 sequence (Q96SW2 whole entry): as the sequence (Q96SW2 whole entry) above
T1 sequence (Q16531 whole entry partner): as the sequence (Q16531 whole entry partner) above
T3 sequence (P15170 whole entry): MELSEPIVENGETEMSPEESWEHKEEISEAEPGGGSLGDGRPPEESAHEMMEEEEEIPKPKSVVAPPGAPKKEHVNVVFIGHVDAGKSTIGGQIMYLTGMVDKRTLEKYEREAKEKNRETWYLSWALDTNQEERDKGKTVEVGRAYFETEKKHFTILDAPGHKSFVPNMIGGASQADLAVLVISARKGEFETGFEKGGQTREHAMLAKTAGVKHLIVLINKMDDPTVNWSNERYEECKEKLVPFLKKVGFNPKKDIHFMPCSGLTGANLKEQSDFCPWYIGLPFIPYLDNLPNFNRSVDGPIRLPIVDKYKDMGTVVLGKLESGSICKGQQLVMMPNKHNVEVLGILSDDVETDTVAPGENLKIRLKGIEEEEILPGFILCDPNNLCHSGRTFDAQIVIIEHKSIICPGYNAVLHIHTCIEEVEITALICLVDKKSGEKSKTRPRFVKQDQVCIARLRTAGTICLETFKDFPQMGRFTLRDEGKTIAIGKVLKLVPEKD
T3 sequence (Q96SW2 whole entry): as the sequence (Q96SW2 whole entry) above
T3 sequence (Q16531 whole entry partner): as the sequence (Q16531 whole entry partner) above
T5 sequence (Q00536 whole entry): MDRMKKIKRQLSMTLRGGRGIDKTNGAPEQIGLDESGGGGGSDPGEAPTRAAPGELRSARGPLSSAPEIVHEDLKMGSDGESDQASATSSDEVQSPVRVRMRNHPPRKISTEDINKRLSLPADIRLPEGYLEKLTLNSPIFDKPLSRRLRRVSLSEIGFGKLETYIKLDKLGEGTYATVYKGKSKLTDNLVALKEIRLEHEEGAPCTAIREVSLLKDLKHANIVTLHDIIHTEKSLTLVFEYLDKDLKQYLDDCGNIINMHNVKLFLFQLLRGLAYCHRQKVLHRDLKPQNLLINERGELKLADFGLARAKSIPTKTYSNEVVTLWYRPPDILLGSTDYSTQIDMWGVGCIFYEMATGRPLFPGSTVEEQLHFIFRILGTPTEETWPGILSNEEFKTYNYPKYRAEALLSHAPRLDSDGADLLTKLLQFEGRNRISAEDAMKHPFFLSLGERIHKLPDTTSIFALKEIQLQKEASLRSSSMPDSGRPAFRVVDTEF
T4 sequence (P50750 whole entry): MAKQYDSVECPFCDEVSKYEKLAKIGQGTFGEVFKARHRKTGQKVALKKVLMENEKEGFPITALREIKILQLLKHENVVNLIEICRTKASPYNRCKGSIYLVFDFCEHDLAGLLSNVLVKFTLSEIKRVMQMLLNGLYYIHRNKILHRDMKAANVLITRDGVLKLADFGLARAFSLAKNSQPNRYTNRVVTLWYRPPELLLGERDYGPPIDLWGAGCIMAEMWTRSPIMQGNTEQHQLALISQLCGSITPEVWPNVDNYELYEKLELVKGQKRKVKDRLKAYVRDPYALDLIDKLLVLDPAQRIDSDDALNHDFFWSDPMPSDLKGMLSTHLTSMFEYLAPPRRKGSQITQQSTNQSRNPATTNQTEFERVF

`CC(C)(C)c1cnc(CSc2cnc(NC(=O)C3CCN(CC(=O)NCCCCNCc4ccc(OCc5scc6c5CN([C@H]5CCC(=O)NC5=O)C6=O)cc4)CC3)s2)o1` (stereo in doubt) [Compound 54, N-(5-(((5-(tert-butyl)oxazol-2-yl)methyl)thio)thiazol-2-yl)-1-(2-((4-((4-((5-(2,6-dioxopiperidin-3-yl)-4-oxo-5,6-dihydro-4H-thieno[3,4-c]pyrrol-1-yl)methoxy)benzyl)amino)butyl)amino)-2-oxoethyl)piperidine-4-carboxamide]: the Dmax at 1 µM in experiment [1] and in experiment [3] was 50 to 75% in each case. Moreover, the viability at 1 µM in [2] was over 90%.

As to `CC(C)(C)c1cnc(CSc2cnc(NC(=O)C3CCN(CC(=O)NCCOCCNC(=O)NCc4ccc5c(c4)CN([C@H]4CCCC(=O)NC4=O)C5=O)CC3)s2)o1` [Compound 6, (S)—N-(5-(((5-(tert-butyl)oxazol-2-yl)methyl)thio)thiazol-2-yl)-1-(1-(2-(2,7-dioxoazepan-3-yl)-1-oxoisoindolin-5-yl)-3,11-dioxo-7-oxa-2,4,10-triazadodecan-12-yl)piperidine-4-carboxamide], the figures for the inhibition at 1 µM in experiment [4], in [5] and in experiment [6] were under 50%, 50 to 70% and under 50%, respectively. Further, the Dmax at 1 µM in [1] is 25 to 50%; in [3], under 25%. The viability at 1 µM in experiment [2] is under 50%.

On to `Cn1ncc(-c2nc(N[C@H]3CC[C@H](NC(=O)CCCCCCNCC(=O)NCc4ccc(COc5cccc6c5CN(C5CCC(=O)NC5=O)C6=O)cc4)CC3)ncc2Cl)c1CC1CC1` (stereo partly drawn) [Compound 8, N-((1r,4r)-4-((5-chloro-4-(5-(cyclopropylmethyl)-1-methyl-1H-pyrazol-4-yl)pyrimidin-2-yl)amino)cyclohexyl)-7-((2-((4-(((2-(2,6-dioxopiperidin-3-yl)-1-oxoisoindolin-4-yl)oxy)methyl)benzyl)amino)-2-oxoethyl)amino)heptanamide], for which the inhibition at 1 µM in experiment [4], in [5] and in experiment [6] was under 50% throughout. For the same molecule, the Dmax at 1 µM in experiment [1] was 50 to 75%; in [7], under 25%. For the same molecule, the viability at 1 µM in experiment [2] is 70 to 90%.

Consider `Cn1ncc(-c2nc(N[C@H]3CC[C@H](NCCCCCCCCNC(=O)NCc4cc5c(s4)C(=O)N(C4CCC(=O)NC4=O)C5)CC3)ncc2Cl)c1CC1CC1` (stereo partly drawn) [Compound 22, 1-(8-(((1r,4r)-4-((5-chloro-4-(5-(cyclopropylmethyl)-1-methyl-1H-pyrazol-4-yl)pyrimidin-2-yl)amino)cyclohexyl)amino)octyl)-3-((5-(2,6-dioxopiperidin-3-yl)-6-oxo-5,6-dihydro-4H-thieno[2,3-c]pyrrol-2-yl)methyl)urea], for which the results for the Dmax at 0.1 µM in experiment [8] and in experiment [9] were 50 to 75% and under 25%, respectively. For the same molecule, the Dmax at 1 µM was at least 75% in experiment [8], 50 to 75% in experiment [9] and under 25% in [3]. Moreover, in experiment [2], the viability at 1 µM is over 90%.

With `Cn1ncc(-c2nc(N[C@H]3CC[C@H](NCC(=O)NCCCCCNCC(=O)NCc4scc5c4CN(C4CCC(=O)NC4=O)C5=O)CC3)ncc2F)c1CC1CC1` (stereo partly drawn) [Compound 32, 2-(((1r,4r)-4-((4-(5-(cyclopropylmethyl)-1-methyl-1H-pyrazol-4-yl)-5-fluoropyrimidin-2-yl)amino)cyclohexyl)amino)-N-(5-((2-(((5-(2,6-dioxopiperidin-3-yl)-4-oxo-5,6-dihydro-4H-thieno[3,4-c]pyrrol-1-yl)methyl)amino)-2-oxoethyl)amino)pentyl)acetamide], the Dmax at 1 µM in experiment [1] is 50 to 75%; in experiment [8], at least 75%; in experiment [7], 25 to 50%; in [9], at least 75%. Also, the Dmax at 0.1 µM in experiment [8] and in [9] was 50 to 75% throughout. Moreover, the viability at 1 µM in experiment [2] is over 90%.

Regarding `Cn1ncc(-c2nc(N[C@H]3CC[C@H](NCC(=O)NCCCCNCC(=O)NCc4scc5c4CN(C4CCC(=O)NC4=O)C5=O)CC3)ncc2Cl)c1CC1CC1` (stereo partly drawn) [Compound 38, 2-(((1r,4r)-4-((5-chloro-4-(5-(cyclopropylmethyl)-1-methyl-1H-pyrazol-4-yl)pyrimidin-2-yl)amino)cyclohexyl)amino)-N-(4-((2-(((5-(2,6-dioxopiperidin-3-yl)-4-oxo-5,6-dihydro-4H-thieno[3,4-c]pyrrol-1-yl)methyl)amino)-2-oxoethyl)amino)butyl)acetamide], the Dmax at 1 µM in experiment [1] is 25 to 50%; in experiment [8], at least 75%; in [7] it was 50 to 75%; in experiment [9], at least 75%. Further, the Dmax at 0.1 µM in experiment [8] and in [9] was 50 to 75% throughout. In [2], the viability at 1 µM was over 90%.

Turning to `Cn1ncc(-c2nc(N[C@H]3CC[C@H](NCC(=O)NCCOCCOCCOCCNCC(=O)NCc4cc5c(s4)C(=O)N(C4CCC(=O)NC4=O)C5)CC3)ncc2Cl)c1CC1CC1` (stereo partly drawn) [Compound 43, 14-(2-(((1r,4r)-4-((5-chloro-4-(5-(cyclopropylmethyl)-1-methyl-1H-pyrazol-4-yl)pyrimidin-2-yl)amino)cyclohexyl)amino)acetamido)-N-((5-(2,6-dioxopiperidin-3-yl)-6-oxo-5,6-dihydro-4H-thieno[2,3-c]pyrrol-2-yl)methyl)-6,9,12-trioxa-3-azatetradecanamide], the inhibition at 1 µM in experiment [4], in experiment [5] and in experiment [6] was under 50% in each case. In experiment [2], the viability at 1 µM lay in the range of 50 to 70%. Also, in experiment [7], the Dmax at 1 µM lay in the range of 50 to 75%.

On to `Cn1ncc(-c2nc(N[C@H]3CC[C@H](NCCOCCOCCOCCNCc4cc5c(s4)C(=O)N(C4CCC(=O)NC4=O)C5)CC3)ncc2Cl)c1CC1CC1` (stereo partly drawn) [Compound 66, 3-(2-(13-(((1r,4r)-4-((5-chloro-4-(5-(cyclopropylmethyl)-1-methyl-1H-pyrazol-4-yl)pyrimidin-2-yl)amino)cyclohexyl)amino)-5,8,11-trioxa-2-azatridecyl)-6-oxo-4,6-dihydro-5H-thieno[2,3-c]pyrrol-5-yl)piperidine-2,6-dione], for which the inhibition at 1 µM in [4], in [5] and in experiment [6] was under 50% throughout. Also, in [2], the viability at 1 µM is 50 to 70%. Further, the Dmax at 1 µM in experiment [7] fell in the range of 50 to 75%.

A word on the Dmax: it is the greatest extent of degradation seen. Low values mean shallow degradation, high ones deep degradation. The term viability denotes the share of living cells, or the viability signal relative to a control. The inhibition is the drop in the measured response relative to a control, in per cent.
